Reference: patent US7691572B2, “Method and kit for detecting resistance to antiviral drugs” (priority 1998, dated 2010)
Where two headings read alike, the source gives them in different places.

Key:
HIV-1 [1] = conditions: cited from earlier work
HIV-1 reference viruses [2] = assay: culture-based assay, inhibition of HIV-1-induced cytopathic effect; format: cell-based
Description: The IC50 values of AZT-TP for WT and MNR reference viruses determined by the Amp-RT assay were compared with previously reported IC50 values determined by a conventional RT assay and a culture-based phenotypic assay (Ueno et al., “Enzymatic characterization of human immunodeficiency virus type 1 reverse transcriptase resistant to multiple 2′,3′-dideoxynucleoside 5′-triphosphates,” J. Biol, Chem. 270: 23605-23611 (1995); Shirasaka et al., “Emergence of human immunodeficiency virus type 1 variants with resistance to multiple dideoxynucleosides in patients receiving therapy with dideoxynucleosides,” Proc. Nat. Acad. Sci. U.S.A. 92: 2398-2402 (1995)).

HIV-1 [3] = conditions: classical AZT resistance mutations T215Y/F, M41L, D67N, K70R, K219Q/E; cited from earlier work
HIV-1 RT [4] = target: HIV-1 RT (Human immunodeficiency virus type 1, UniProt P04585, F664L/S655G/V662I, form not given); format: biochemical; conditions: read-out: IC50 Amp-RT assay; patient-derived virus 15 (L6), S68G, V75I, F77L, K103N, F116Y, Q151M, M184V
Description: (§1) Four groups of archived HIV-1 specimens with known genotypes were selected for assay validation. These included WT, MNR, MNR carrying unrelated resistance mutations, and non-MNR specimens carrying classical AZT resistance mutations (Schmit et al., “Multiple drug resistance to nucleoside analogues and nonnucleoside reverse transcriptase inhibitors in an efficiently replicating human immunodeficiency virus type 1 patient strain,” J. Infect. Dis. 174: 962-968 (1996); Winters et al., “A 6-base pair insert in the reverse transcriptase gene of human immunodeficiency virus type 1 confers resistance to multiple nucleoside inhibitors,” J. Clin. Invest. 102: 1769-1775 (1998); Adje et al., “High prevalence of genotypic and phenotypic HIV-1 drug-resistant strains among patients receiving antiretroviral therapy in Abidjan, Cote d'Ivoire,” J. Acquired Immune Deficiency Syndromes 26: 501-506 (2001); Weinstock et al., “Prevalence of mutations associated with reduced antiretroviral drug susceptibility among human immunodeficiency virus type 1 seroconverters in the United States, 1993-1998,” J. Infect. Dis. 182: 330-333 (2000)). Forty-four samples were selected which comprised 7 viral stocks and 37 plasma samples obtained from 34 HIV-1-infected persons.

HIV-1 RT [5] = target: T1, HIV-1 RT (Human immunodeficiency virus type 1 group M subtype B, UniProt P04585); format: biochemical; conditions: read-out: IC50 Amp-RT assay; patient-derived virus 12 (L1), None
Description: as §1

HIV-1 RT [6] = target: HIV-1 RT (Human immunodeficiency virus type 1, UniProt P04585, S655G/V662I, form not given); format: biochemical; conditions: read-out: IC50 Amp-RT assay; patient-derived virus 14 (L4), A62A/V, S68G, V75I, F77L, F116Y, Q151M
Description: as §1

HIV-1 RT [7] = target: HIV-1 RT (Human immunodeficiency virus type 1, UniProt P04585, Q738M/S655G); format: biochemical; conditions: read-out: IC50 Amp-RT assay; patient-derived virus 13 (L2), S68G, Q151M
Description: as §1

HIV-1 RT [8] = format: biochemical
Description: as §1

HIV-1 RT [9] = format: biochemical; remark: listed apart in the source
patient-derived HIV-1 [10] = conditions: read-out: IC50 Culture based assay, cited from earlier work
HIV-1 reference viruses [11] = conditions: read-out: IC50 Culture based assay, cited from earlier work
HIV-1 RT [12] = conditions: cited from earlier work
patient-derived HIV-1 [13] = assay: culture-based plaque reduction assay (Schmit et al., 1996); format: cell-based
Description: The results obtained are correlated with the genotypes of the specimens.

HIV-1 RT [14] = target: T1, HIV-1 RT; assay: Amp-RT assay, AZT-TP and other NRTI-TPs, reference viruses; format: biochemical; conditions: WT HIV-1SUM9
HIV-1 RT [15] = target: HIV-1 RT (Human immunodeficiency virus type 1, UniProt P04585, A649V/F664L/F703Y/Q738M/V662I); assay: as above; format: biochemical
HIV-1 RT [16] = target: HIV-1 RT (Human immunodeficiency virus type 1, UniProt P04585, F664L/F703Y/Q738M); assay: as above; format: biochemical
HIV-1 RT [17] = assay: as above; format: biochemical
HIV-1 RT [18] = target: HIV-1 RT (Human immunodeficiency virus type 1, UniProt P04585, Q738M); assay: as above; format: biochemical
[19] = HIV1SUM13 (A62V, V75I, F77L, F116Y, Q151M)

Cc1cn([C@H]2C[C@H](N=[N+]=[N-])[C@@H](CO)O2)c(=O)[nH]c1=O [AZT, zidovudine]
reduced susceptibility to AZT (HIV-1 [1]; plasma sample HIV-1R598 (D67N, V106A, L214W, L214F, T215Y)): 100 fold | reduced susceptibility to AZT (HIV-1 [1]; specimen no. 40 (T215Y, T69S-EA insertions)): 100 fold | fold change from IC50 of WT HIV-1, Culture based assay (HIV-1 reference viruses [2]; HIV1SUM8): (10) fold | fold change from IC50 of WT HIV-1, Culture based assay (HIV-1 reference viruses [2]; HIV1SUM12): (>320) fold | fold change from IC50 of WT HIV-1, Culture based assay (HIV-1 reference viruses [2]; HIV1SUM13): (>320) fold | resistance to AZT (HIV-1 [3]): > 100 fold | IC50 (HIV-1 RT [4]): 14600 nM | IC50 (HIV-1 RT [5]): 350 nM | IC50 (HIV-1 RT [6]): 8230 nM | IC50 (HIV-1 RT [7]): 1350 nM | fold change from IC50 of WT HIV-1, Amp-RT assay (HIV-1 RT [8]; patient-derived virus 13 (L2)): (3.9) fold | fold change from IC50 of WT HIV-1, Amp-RT assay (HIV-1 RT [8]; patient-derived virus 14 (L4)): (23.5) fold | fold change from IC50 of WT HIV-1, Amp-RT assay (HIV-1 RT [8]; patient-derived virus 15 (L6)): (41.8) fold | fold change from IC50 of WT HIV-1, RT assay (HIV-1 RT [9]; HIV1SUM8 (Q151M)): (8.3) fold | fold change from IC50 of WT HIV-1, RT assay (HIV-1 RT [9]; HIV1SUM12): (38) fold | fold change from IC50 of WT HIV-1, RT assay (HIV-1 RT [9]; HIV1SUM13): (65) fold | IC50 (patient-derived HIV-1 [10]; 12 (L1), None): 6 nM | IC50 (patient-derived HIV-1 [10]; 13 (L2), S68G, Q151M): 9 nM | IC50 (patient-derived HIV-1 [10]; 14 (L4), A62A/V, S68G, V75I, F77L, F116Y, Q151M): 3800 nM | IC50 (patient-derived HIV-1 [10]; 15 (L6), S68G, V75I, F77L, K103N, F116Y, Q151M, M184V): 18700 nM | IC50 (HIV-1 reference viruses [11]; HIV1SUM8 (Q151M)): 5000 nM | IC50 (HIV-1 reference viruses [11]; HIV1SUM9 (None)): 500 nM | IC50 (HIV-1 reference viruses [11]; HIV1SUM12 (F77L, F116Y, Q151M)): > 160000 nM | IC50 (HIV-1 reference viruses [11]; [19]): > 160000 nM | IC50 (HIV-1 RT [12]; HIV1SUM8 (Q151M)): 190 nM | IC50 (HIV-1 RT [12]; HIV1SUM9 (None)): 23 nM | IC50 (HIV-1 RT [12]; HIV1SUM12 (F77L, F116Y, Q151M)): 880 nM | IC50 (HIV-1 RT [12]; [19]): 1500 nM | fold change from IC50 of WT HIV-1, Culture based assay (patient-derived HIV-1 [13]; 13 (L2)): (1.5) fold | fold change from IC50 of WT HIV-1, Culture based assay (patient-derived HIV-1 [13]; 14 (L4)): (633) fold | fold change from IC50 of WT HIV-1, Culture based assay (patient-derived HIV-1 [13]; 15 (L6)): (3117) fold | IC50 (HIV-1 RT [14]): 500 nM | IC50 (HIV-1 RT [15]): 18000 nM | IC50 (HIV-1 RT [16]): 11000 nM | fold resistance (IC50) as compared to the mean IC values of WT HIV-1 (HIV-1 RT [17]; MNR HIV-1SUM8 (Q151M)): (5) fold | fold resistance (IC50) as compared to the mean IC values of WT HIV-1 (HIV-1 RT [17]; MNR HIV-1SUM12 (F77L, F116Y, Q151M)): (22) fold | fold resistance (IC50) as compared to the mean IC values of WT HIV-1 (HIV-1 RT [17]; MNR HIV-1SUM13 (A62V, V75I, F77L, F116Y, Q151M)): (36) fold | IC50 (HIV-1 RT [18]): 2500 nM
